Holding throughout (assay type): biochemical
For one assay, the target named is T1, JAK3 (Homo sapiens, UniProt P52333).
T1 construct: made in house; host or cells: SF9 insect cells (baculovirus)
In words: JAK3 inhibition (Table 4). Particulars: read-out: JAK3 Ki.

The target of a further assay is T2, JAK2 (Homo sapiens, UniProt O60674).
T2 construct: made in house; host or cells: SF9 insect cells (baculovirus)
In words: JAK2 inhibition (Table 4). Particulars: read-out: JAK2 Ki.

Another assay concerns the target T3, TYK2 (Homo sapiens, UniProt P29597).
T3 construct: made in house; host or cells: SF9 insect cells (baculovirus)
T3 sequence (P29597 873-1187): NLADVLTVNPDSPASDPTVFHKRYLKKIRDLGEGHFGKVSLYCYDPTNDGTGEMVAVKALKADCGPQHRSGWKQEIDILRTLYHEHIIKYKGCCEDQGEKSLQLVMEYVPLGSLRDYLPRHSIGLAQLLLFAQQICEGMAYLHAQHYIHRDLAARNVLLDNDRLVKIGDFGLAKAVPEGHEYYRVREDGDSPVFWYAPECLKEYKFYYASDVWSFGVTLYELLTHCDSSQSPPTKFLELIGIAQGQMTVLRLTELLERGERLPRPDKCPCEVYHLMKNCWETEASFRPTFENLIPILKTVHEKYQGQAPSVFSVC
In words: TYK2 inhibition (Table 4).

The target of another assay is T4, JAK1 (Homo sapiens, UniProt P23458).
T4 construct: made in house; host or cells: SF9 insect cells (baculovirus)
In words: JAK1 inhibition (Table 4). The conditions noted are these: read-out: JAK1 Ki.

pKi: −log10 of the molar value.

T1 sequence (P52333 783-1124): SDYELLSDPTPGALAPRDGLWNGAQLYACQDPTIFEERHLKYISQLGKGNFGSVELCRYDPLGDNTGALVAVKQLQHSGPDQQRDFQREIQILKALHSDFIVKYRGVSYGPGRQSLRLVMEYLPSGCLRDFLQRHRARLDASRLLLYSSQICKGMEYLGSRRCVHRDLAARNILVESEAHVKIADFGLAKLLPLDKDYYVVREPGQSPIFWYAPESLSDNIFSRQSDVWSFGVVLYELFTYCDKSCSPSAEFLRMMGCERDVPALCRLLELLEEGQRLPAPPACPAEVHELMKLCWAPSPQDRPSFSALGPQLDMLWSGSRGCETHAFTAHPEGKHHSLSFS
T4 sequence (P23458 852-1154): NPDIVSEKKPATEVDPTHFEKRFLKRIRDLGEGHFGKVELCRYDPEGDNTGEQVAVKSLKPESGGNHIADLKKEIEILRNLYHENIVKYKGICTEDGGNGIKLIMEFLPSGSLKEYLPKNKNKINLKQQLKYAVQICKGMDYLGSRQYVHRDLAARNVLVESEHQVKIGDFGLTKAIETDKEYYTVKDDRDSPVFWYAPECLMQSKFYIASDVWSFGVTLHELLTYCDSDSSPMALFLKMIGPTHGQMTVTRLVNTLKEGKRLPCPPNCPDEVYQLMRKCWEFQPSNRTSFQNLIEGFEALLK
T2 sequence (O60674 812-1132): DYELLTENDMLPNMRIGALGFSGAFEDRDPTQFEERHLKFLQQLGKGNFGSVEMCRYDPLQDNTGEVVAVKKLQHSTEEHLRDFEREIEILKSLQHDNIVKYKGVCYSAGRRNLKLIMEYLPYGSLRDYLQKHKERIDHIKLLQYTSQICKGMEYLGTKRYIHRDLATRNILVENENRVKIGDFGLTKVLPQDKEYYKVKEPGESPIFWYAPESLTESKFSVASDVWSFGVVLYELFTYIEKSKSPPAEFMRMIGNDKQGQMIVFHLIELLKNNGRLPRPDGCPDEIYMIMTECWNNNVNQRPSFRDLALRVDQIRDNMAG

By pKi is commonly meant −log10 of the Ki, conventionally taken in molar units. Consider `OCCc1nc2cnc3[nH]ccc3c2n1C1CCN(Cc2ccccc2)CC1` [Example 82], for which the pKi was 7.85 at JAK3, 7.95 at JAK2, 6.71 at TYK2 and 8.46 at JAK1.

Take `Cn1nccc1C(=O)N1CCC(n2cnc3cnc4[nH]ccc4c32)CC1` [Example 84, (2-Methyl-2H-pyrazol-3-yl)-[4-(6H-1,3,5,6-tetraaza-as-indacen-1-yl)-piperidin-1-yl]methanone]: the pKi on JAK3 is 6.13; on JAK2, 7.44; on TYK2, 6.80; at JAK1, 7.94.

As for `c1cc2c(ncc3ncn(C4CCN(C5CCOCC5)CC4)c32)[nH]1` [Example 85, 1-[-(Tetrahydro-pyran-4-yl)-piperidin-4-yl]-1,6-dihydro-1,3,5,6-tetraaza-as-indacene], the pKi is 6.15 at JAK3, 7.19 on JAK2, 6.82 on TYK2 and 7.49 on JAK1.

Turning to `Cc1nc2cnc3[nH]ccc3c2n1C1CCN(S(C)(=O)=O)CC1` [Example 86, 1-(1-Methanesulfonyl-piperidin-4-yl)-2-methyl-1,6-dihydro-1,3,5,6-tetraaza-as-indacene], the pKi is 7.14 on JAK3, 7.75 on JAK2, 7.31 at TYK2 and 8.12 on JAK1.

Take `O=S(=O)(c1cccnc1)N1CCC(n2cnc3cnc4[nH]ccc4c32)CC1` [Example 88, 1-[1-(Pyridine-3-sulfonyl)-piperidin-4-yl]-1,6-dihydro-1,3,5,6-tetraaza-as-indacene]: the pKi on JAK3 was 6.39; on JAK2, 7.97; at TYK2 it was 7.18; on JAK1, 8.05.

Consider `O=S(=O)(N1CCC(n2cnc3cnc4[nH]ccc4c32)CC1)C(F)(F)F` [Example 89, 1-(1-Trifluoromethanesulfonyl-piperidin-4-yl)-1,6-dihydro-1,3,5,6-tetraaza-as-indacene], for which the pKi was 6.55 at JAK3, 7.89 on JAK2, 7.01 on TYK2 and 7.97 at JAK1.

Take `c1cc2c(ncc3ncn(C4CCN(Cc5cocn5)CC4)c32)[nH]1` [Example 90, 1-(1-Oxazol-4-ylmethyl-piperidin-4-yl)-1,6-dihydro-1,3,5,6-tetraaza-as-indacene]: the pKi on JAK3 is 7.33; at JAK2 it was 8.06; on TYK2, 7.20; at JAK1 it was 8.17.

In the case of `CS(=O)(=O)c1cccc(CN2CCC(n3cnc4cnc5[nH]ccc5c43)CC2)c1` [Example 91, 1-[1-(3-Methanesulfonyl-benzyl)-piperidin-4-yl]-1,6-dihydro-1,3,5,6-tetraaza-as-indacene], the pKi at JAK3 was 7.09; at JAK2, 8.48; at TYK2 it was 6.85; at JAK1, 9.19.

For the molecule `c1cnc(CN2CCC(n3cnc4cnc5[nH]ccc5c43)CC2)cn1` [Example 92, 1-(1-Pyrazin-2-ylmethyl-piperidin-4-yl)-1,6-dihydro-1,3,5,6-tetraaza-as-indacene], the pKi is 7.59 at JAK3, 8.21 at JAK2, 6.96 on TYK2 and 8.44 on JAK1.

In the case of `c1cc2c(ncc3ncn([C@@H]4C[C@H]5CC[C@@H](C4)N5)c32)[nH]1` [Example 93, (1S,3S,5R)-1-(8-aza-bicyclo[3.2.1]oct-3-yl)-1,6-dihydro-1,3,5,6-tetraaza-as-indacene], the pKi is 6.00 on JAK3, 6.99 on JAK2, 6.49 at TYK2 and 7.53 at JAK1.

Turning to `N#Cc1cccc(N2CCC(n3cnc4cnc5[nH]ccc5c43)CC2)n1` [Example 94, 4-(6H-1,3,5,6-Tetraaza-as-indacen-1-yl)-3,4,5,6-tetrahydro-2H-[1,2′]bipyridinyl-6′-carbonitrile], the pKi on JAK3 is 8.11; at JAK2, 8.55; on TYK2 it was 7.68; on JAK1, 9.14.

Take `N#Cc1ccc(N2CCC(n3cnc4cnc5[nH]ccc5c43)CC2)nc1` [Example 95, 4-(6H-1,3,5,6-Tetraaza-as-indacen-1-yl)-3,4,5,6-tetrahydro-2H-[1,2′]bipyridinyl-5′-carbonitrile]: the pKi is 6.79 at JAK3, 7.45 on JAK2, 6.99 at TYK2 and 7.91 on JAK1.

Regarding `CS(=O)(=O)N1[C@@H]2CC[C@H]1C[C@H](n1cnc3cnc4[nH]ccc4c31)C2` [Example 97, 1-((1S,3S,5R)-8-Methanesulfonyl-8-aza-bicyclo[3.2.1]oct-3-yl)-1,6-dihydro-1,3,5,6-tetraaza-as-indacene], the pKi is 7.53 on JAK3, 8.63 at JAK2, 7.70 on TYK2 and 8.45 at JAK1.

With `N#CCCN1[C@@H]2CC[C@H]1C[C@H](n1cnc3cnc4[nH]ccc4c31)C2` [Example 98, 3-[(1S,3S,5R)-3-(6H-1,3,5,6-Tetraaza-as-indacen-1-yl)-8-aza-bicyclo[3.2.1]oct-8-yl]propionitrile], the pKi at JAK3 is 7.93; on JAK2, 8.79; on TYK2 it was 8.06; at JAK1, 8.69.

As to `O=C(Cc1nc2cnc3[nH]ccc3c2n1C1CCN(Cc2ccccc2)CC1)NC1CCCC1` [Example 99, 2-[1-(1-Benzyl-piperidin-4-yl)-1,6-dihydro-1,3,5,6-tetraaza-as-indacen-2-yl]-N-cyclopentyl-acetamide], the pKi was 7.97 at JAK3, 7.79 on JAK2, 6.23 on TYK2 and 8.37 on JAK1.

Take `O=C(Cc1nc2cnc3[nH]ccc3c2n1C1CCN(Cc2ccccc2)CC1)N1CCCC1` [Example 100, 2-[1-(1-Benzyl-piperidin-4-yl)-1,6-dihydro-1,3,5,6-tetraaza-as-indacen-2-yl]-1-pyrrolidin-1-yl-ethanone]: the pKi was 7.77 at JAK3, 7.00 at JAK2, 5.68 at TYK2 and 7.66 on JAK1.

For `CN(C(=O)Cc1nc2cnc3[nH]ccc3c2n1C1CCN(Cc2ccccc2)CC1)C1CCCC1` [Example 101, 2-[1-(1-Benzyl-piperidin-4-yl)-1,6-dihydro-1,3,5,6-tetraaza-as-indacen-2-yl]-N-cyclopentyl-N-methyl-acetamide], the pKi on JAK3 was 7.56; on JAK2, 6.71; on TYK2 it was 5.49; at JAK1, 7.39.

As for `O=C(Cc1nc2cnc3[nH]ccc3c2n1C1CCN(Cc2ccccc2)CC1)N1CCS(=O)(=O)CC1` [Example 102, 2-[1-(1-Benzyl-piperidin-4-yl)-1,6-dihydro-1,3,5,6-tetraaza-as-indacen-2-yl]-1-(1,1-dioxo-1λ*6*thiomorpholin-4-yl)ethanone], the pKi at JAK3 was 8.01; at JAK2, 7.29; at TYK2 it was 6.35; on JAK1, 8.24.

Regarding `CC(C)NC(=O)Cc1nc2cnc3[nH]ccc3c2n1C1CCN(Cc2ccccc2)CC1` [Example 103, 2-[1-(1-Benzyl-piperidin-4-yl)-1,6-dihydro-1,3,5,6-tetraaza-as-indacen-2-yl]-N-isopropylacetamide], the pKi is 7.94 on JAK3, 7.76 on JAK2, 6.17 on TYK2 and 8.29 on JAK1.

Consider `c1cc2c(ncc3ncn(C4CCN(Cc5cncs5)CC4)c32)[nH]1` [Example 104, 1-(1-Thiazol-5-ylmethyl-piperidin-4-yl)-1,6-dihydro-1,3,5,6-tetraaza-as-indacene], for which the pKi was 7.94 on JAK3, 8.77 on JAK2, 7.68 at TYK2 and 9.05 on JAK1.

With `CC(=O)N[C@H]1CC[C@H](n2cnc3cnc4[nH]ccc4c32)CC1` [Example 106, Trans N-[4-(6H-1,3,5,6-tetraaza-as-indacen-1-yl)-cyclohexyl]acetamide], the pKi is 7.36 on JAK3, 7.97 on JAK2, 7.45 on TYK2 and 8.26 at JAK1.

Turning to `Cc1nc2cnc3[nH]ccc3c2n1C1CCC(F)(F)CC1` [Example 114, 1-(4,4-Difluoro-cyclohexyl)-2-methyl-1,6-dihydro-1,2,3,5,6-tetraaza-as-indacene], the pKi on JAK3 is 7.77; at JAK2 it was 7.54; at TYK2, 7.78; on JAK1, 8.01.

Regarding `CS(=O)(=O)N1CCC(n2c(CC3CCCC3)nc3cnc4[nH]ccc4c32)CC1` [Example 115, 2-Cyclopentylmethyl-1-(1-methanesulfonyl-piperidin-4-yl)-1,6-dihydro-1,2,3,5,6-tetraaza-as-indacene], the pKi was 6.26 at JAK3, 6.13 at JAK2, 6.81 at TYK2 and 6.49 at JAK1.

Regarding `N#CCCN1CCC(n2c(CC3CCCC3)nc3cnc4[nH]ccc4c32)CC1` [Example 116, 3-[4-(2-Cyclopentylmethyl-6H-1,2,3,5,6-tetraaza-as-indacen-1-yl)-piperidin-1-yl]-propionitrile], the pKi is 7.24 on JAK3, 7.11 on JAK2, 6.49 on TYK2 and 7.71 at JAK1.

As to `CCCS(=O)(=O)N1CCC(n2c(CC(N)=O)nc3cnc4[nH]ccc4c32)CC1` [Example 117, 2-{1-[1-(Propane-1-sulfonyl)-piperidin-4-yl]-1,6-dihydro-1,2,3,5,6-tetraaza-as-indacen-2-yl}-acetamide], the pKi is 6.13 on JAK3, 6.11 on JAK2, 5.81 at TYK2 and 6.88 at JAK1.

Source of the values: patent US8461328B2, “Tricyclic heterocyclic compounds, compositions and methods of use thereof” (Genentech, Inc., priority 2010, dated 2013).
